Where two headings read alike, the source gives them in different places. Marks after values point to notes of the source that are not given here.
Experiments:
[1] = system: 3T3 mouse embryo fibroblast line; assay: MTT proliferation/viability assay, 3T3; type: cell-based; settings: 72 h/37°C, mean ± S.D., serum- and pyruvate-free DMEM
Procedure: (§1) The MCF-7 human breast adenocarcinoma cell line was purchased from the European Collection of Cell Cultures (U.K.). The HL-60 human promyelocytic leukemia cell line, HCT116 human colorectal carcinoma cell line, H9c2 rat heart-derived myoblast cell line and 3T3 mouse embryo fibroblast line, were obtained from the American Type Culture Collection (VA, U.S.A.). Cells were cultured in Dulbecco's modified Eagle's medium (DMEM, Lonza, Switzerland) with or without (for MCF-7 cells only) phenol red, supplemented with 10% heat-inactivated fetal bovine serum (FBS; Lonza, Switzerland), 1% penicillin/streptomycin solution (Lonza, Switzerland) and 10 mM HEPES buffer (pH 7.0-7.6; Sigma-Aldrich, Germany). The HL-60 cell line was maintained in RPMI medium (Sigma-Aldrich, Germany) supplemented with 10% heat-inactivated FBS and 1% penicillin/streptomycin solution. All cell lines were cultured in 75 cm^2 tissue culture flasks (Switzerland) at 37°C in a humidified atmosphere of 5% CO2. Sub-confluent cells or, in the case of HL-60 cells, a cell suspension, were sub-cultured every 3-4 days.
(§2) Cells were seeded in 96-well plates for 24 h/37°C at a density of 5,000 (MCF-7), 10,000 (HL-60), 2,000 (HCT116) and 10,000 (3T3 and H9c2) cells/well. For 3T3 and H9c2 cells, the medium was changed to serum- and pyruvate-free DMEM 24 h prior to the experiments. Anti-proliferative and cytotoxicity effects of the compounds were studied at different concentrations after incubations for 72 h/37°C. Viabilities of cells were determined using MTT assays (Sigma-Aldrich, Germany) according to the manufacturer's instructions on a Tecan Infinite 200M plate reader (Tecan, Austria). The proliferation/viability of treated groups was expressed as a percentage of the untreated controls (100%).

[2] = system: H9c2 rat heart-derived myoblast cell line; assay: MTT proliferation/viability assay, H9c2; type: cell-based; settings: 72 h/37°C, mean ± S.D., serum- and pyruvate-free DMEM
Procedure: as §1, §2

[3] = system: HCT116 human colorectal carcinoma cell line; assay: MTT proliferation/viability assay, HCT116; type: cell-based; settings: HCT-116, 72 h/37°C, mean ± S.D.
Procedure: as §1, §2

[4] = Pharmacokinetics after single i.v. administration to rats (plasma, UHPLC-MS/MS); type: in vivo, Wistar rats; settings: for Cmax / Tmax / AUC(0-inf) / clearance / half-life / AUC(0-t) / Vd: male, Wistar, rat, plasma, iv; for Cmax / Tmax / AUC(0-inf) / clearance / half-life / AUC(0-t): 2 mg/kg; for AUC(0-inf): read-out: AUC (zero to infinity); for AUC(0-t): read-out: AUC0-tlast; for Vd: read-out: Vz (apparent volume of distribution); for mean plasma concentration at 6 h relative to Cmax: i.v. 2 mg·kg^−1, 6 h, DpC Group 1
Procedure: Male Wistar rats (230-310 g; n = 22) obtained from Velaz (Czech Republic) were kept in an air-conditioned room under a 12 h light-dark cycle, constant temperature and humidity and had free access to water and a standard laboratory pellet diet for rodents. All animal handling and procedures were approved and supervised by the Animal Welfare Body of the Faculty of Medicine in Hradec Kralove, Charles University in Prague. The investigation conformed to the Guide for the Care and Use of Laboratory Animals.
The rats were anaesthetized with pentobarbital (30 mg^.kg^−1; i.p.) and then the vena jugularis and arteria carotis were prepared for drug administration and blood sample collection, respectively. Both Dp44mT and DpC were dissolved in a mixture of saline, PEG 300 and ethanol (5:4:1, v/v/v) and administered to rats at a dose of 2 mg^.kg^−1, as a slow i.v. bolus. Blood was then collected into EDTA-containing tubes, immediately centrifuged and the plasma kept at −80°C until being analyzed. The blood withdrawn from animals was compensated with an appropriate volume of saline. The animals were sacrificed by pentobarbital overdose.
Initially, for both compounds, rats (n = 2, in each group) were used for the in-vivo investigation of the thiosemicarbazone metabolites and also the preparation of the quantitative analytical method. For the full PK study, 6 rats were used for each compound (group 1) and the blood was sampled at 4, 10, 30, 60, 120, 240 and 360 min post-administration.
Due to the markedly slower elimination of DpC, an additional in-vivo study was performed to appropriately describe the elimination phase of this drug. The conscious rats (n = 8, group 2) were administered DpC (2 mg^.kg^−1) via slow i.v. bolus to the vena saphena. Blood was sampled from the retro-orbital plexus under light ether anesthesia during the following time intervals: 120, 360, 600, 1440 and 1800 min. Plasma samples were treated and analyzed using the analytical methods described below in the Section: UHPLC-MS/MS methods for quantitative assay of the drugs and their metabolites.
Standard non-compartmental analysis was performed implementing Kinetica software (version 4.0, Thermo Fisher Scientific Inc., MA, U.S.A.). […] Maximum concentration (Cmax) and the time to maximum concentration (Tmax) were determined directly from the geometric mean vs. time profiles and from individual profiles. The area under the mean plasma concentration–time curve from zero up to the last sampling interval (AUC0-tlast) was calculated by a combination of the linear and log-linear trapezoidal methods. The area under the mean plasma concentration–time curve from zero up to infinity (AUC) was determined as the sum of the AUC0–tlast and of the extrapolated part (i.e., the ratio of the concentration predicted at the time interval of tlast and the terminal rate constant, λz). The λz was estimated by linear regression of the log transformed concentrations in the terminal part of the curve.
Population pharmacokinetic modeling was performed using non-linear, mixed effect modeling as implemented in Monolix, version 4 (http://wfn.software.monolix.org). Pharmacokinetic parameters were estimated by computing the maximum likelihood estimator of the parameters without any approximation of the model (no linearization). This was performed using the Stochastic Approximation Expectation Maximization (SAEM) algorithm combined with a Markov chain Monte Carlo procedure. The between-animal variability in model parameters were ascribed to an exponential model and a proportional model was used to describe the residual variability. The goodness-of-fit was assessed by using several diagnostic plots (observed and predicted concentrations vs. time; observed concentrations vs. population predictions; weighted residuals vs. time; and weighted residuals vs. predictions). Individual parameter values were obtained as empirical Bayes estimates. […]

[5] = rats, i.v. 2 mg·kg^−1, individual values, mean ± S.D., DpC Group 1 only, read-out: Cmax (observed, individual)
[6] = rats, i.v. 2 mg·kg^−1, individual values, mean ± S.D., DpC Group 1 only, read-out: Tmax (observed, individual) (converted)
[7] = rats, i.v. 2 mg·kg^−1, non-compartmental analysis of geometric mean plasma curves, Dp4mT = metabolite after Dp44mT dosing, read-out: Cmax
[8] = rats, i.v. 2 mg·kg^−1, non-compartmental analysis, Dp4mT = metabolite after Dp44mT dosing, read-out: Tmax (converted)
[9] = rats, i.v. 2 mg·kg^−1, non-compartmental analysis
[10] = rats, i.v. 2 mg·kg^−1, non-compartmental analysis, read-out: CL (total plasma clearance) (converted)
[11] = rats, i.v. 2 mg·kg^−1, non-compartmental analysis, read-out: t1/2 (elimination half-life) (converted)
[12] = rats, i.v. 2 mg·kg^−1, two-compartment population model, Bayesian estimates, mean ± S.D.
[13] = rats, i.v. 2 mg·kg^−1, two-compartment population model, Bayesian estimates, mean ± S.D., read-out: CL (total clearance) (converted)
[14] = rats, i.v. 2 mg·kg^−1, two-compartment population model, Bayesian estimates, mean ± S.D., read-out: t1/2alpha (initial distribution half-life)
[15] = rats, i.v. 2 mg·kg^−1, two-compartment population model, Bayesian estimates, mean ± S.D., read-out: t1/2beta (elimination half-life) (converted)
[16] = rats, i.v., population analysis

SMILES | IC50 [1] [nM] | IC50 [2] [nM] | IC50 [3] [nM] | Cmax [4, 5] [µM] | Tmax [4, 6] [min] | Cmax [4, 7] [µM] | Tmax [4, 8] [min] | AUC(0-inf) [4, 9] [µM·h] | clearance [4, 10] [mL/min/kg] | half-life [4, 11] [min] | AUC(0-inf) [4, 12] [µM·h] | clearance [4, 13] [mL/min/kg] | half-life [4, 14] [min] | half-life [4, 15] [min] | AUC(0-t) [4] [µM·h] | Vd [4, 9] [L/kg] | mean plasma concentration at 6 h relative to Cmax ([4]; rats) | lamdaz (terminal rate constant of elimination) [4, 9] [h⁻¹] | mean extrapolated AUC [4, 9] [%] | Q (intercompartmental clearance) [4, 12] | further results
CN(C)C(=S)NN=C(c1ccccn1)c1ccccn1 [Dp44mT, di(2-pyridyl)ketone 4,4-dimethyl-3-thiosemicarbazone] | 157 ± 51 | 124 ± 49 | 6 ± 1 | 3.78 ± 1.33 | 5 | 2.55 | 4 | 1.46 | 79.7 | 132 | 1.66 ± 0.25 | 71.8 | 4.3 ± 0.54 | 102 ± 18 | 1.34 | 15 | less than 2% | 0.318 | 8 | 5.11 ± 0.66 L/h/kg | total clearance ([4]; rats, i.v. 2 mg·kg^−1, range of both analyses): 4.3-4.8 L^.h^−1.kg^−1; Vc (volume of central compartment) [4, 12]: 1.02 ± 0.12 L/kg; Vp (volume of peripheral compartment) [4, 12]: 5.44 ± 1.70 L/kg; clearance, fold higher than DpC [4, 16]: 23 fold; dose-corrected total AUC, fold lower than DpC [4, 16]: 28 fold; terminal half-life of elimination (t1/2β), fold shorter than DpC [4, 16]: 6.3 fold
CN(C(=S)NN=C(c1ccccn1)c1ccccn1)C1CCCCC1 [DpC, di(2-pyridyl)ketone 4-cyclohexyl-4-methyl-3-thiosemicarbazone] | 412 ± 177 | 85 ± 13 | 5 ± 1 | 5.57 ± 0.89 | 4 | 5.51 | 4 | 39.8 | 2.37 | 810 | 37.2 ± 16 | 3.1 | 40 ± 5 | 642 ± 240 | 32.2 | 2.77 | 21% | 0.0515 | 19 | 0.50 ± 0.11^b L·h^−1·kg^−1 | total exposure (AUC/dose), fold exceeding that of Dp44mT ([4]; rats, i.v.): > 20 fold; Vc (volume of central compartment) [4, 12]: 1.05 ± 0.08 L/kg; Vp (volume of peripheral compartment) [4, 12]: 1.19 ± 0.68^a L·kg^−1; dose-corrected individual Cmax, higher than Dp44mT by ([4]; rats, i.v., p<0.01): 80%

— paper PMC4767442 (Oncotarget, 2015)
